Test results from ChEMBL document CHEMBL1149295, “A combined QM/MM approach to protein--ligand interactions: polarization effects of the HIV-1 protease on selected high affinity inhibitors” (J Med Chem, 2004).

Assay: Inhibition of HIV1 protease
Set-up: species or system Human immunodeficiency virus 1

| Ki [pM] | SMILES |
| --- | --- |
| 410 | Nc1cccc(CN2C(=O)N(Cc3cccc(N)c3)[C@H](Cc3ccccc3)[C@H](O)[C@@H](O)[C@H]2Cc2ccccc2)c1 [MOZENAVIR] |
| 280 | Cc1c(O)cccc1C(=O)N[C@@H](CSc1ccccc1)[C@H](O)CN1C[C@H]2CCCC[C@H]2C[C@H]1C(=O)NC(C)(C)C [NELFINAVIR] |
| 8 | CCC[C@@]1(CCc2ccccc2)CC(O)=C([C@H](CC)c2cccc(NS(=O)(=O)c3ccc(C(F)(F)F)cn3)c2)C(=O)O1 [TIPRANAVIR] |
